From article PMC11292626, “5-Fluoroindole Reduces the Bacterial Burden in a Murine Model of Mycobacterium tuberculosis Infection” (ACS Omega, 2024)
Read-outs that look alike come from different tables or passages of the source. Marks after values point to notes of the source that are not given here.

Key:
[1] = tested on: Mycobacterium tuberculosis H37Rv Strain; experiment: MIC by resazurin reduction microplate assay (REMA), H37Rv; assay type: cell-based; settings: Mtb H37Rv; for MIC: REMA
[2] = Aqueous solubility at different pHs; assay type: physicochemical; settings: thermodynamic from solid, 25 °C for 4 h
Experimental: The compound was weighed (1 mg) and solubilized in phosphate-buffered saline (PBS, pH 7.4), HCl 0.1 M (pH 1.2), and NH4HCO3 0.1 M (pH 9.2) to a final concentration of 1 mg/mL. The solutions were kept under stirring (250 rpm) for 4h at 37 °C. The solutions were filtered ([…] PDVA filter) and analyzed by HPLC. DMSO solution 1 mg/mL was used as the control for 100% soluble.

[3] = Metabolic stability in rat liver microsomes; assay type: in vitro ADME; settings: rat
Experimental: The compound was incubated at 37 °C in the concentration of 20 μM with rat liver microsomal fractions in PBS solution at pH 7.4 solution. As previously described,[31] rat liver microsomal fractions were seeded by centrifugation at 9.000 × g. To the supernatant containing the postmithocondrial with cytosolic and membrane-bound enzymes, 4 μM 5-FI was added and incubated at 37 °C. The interaction between the compound in the incubation mixture and the enzyme containing NADPH at 1 mg/mL concentration was measured by HPLC-MS/MS technique to determine the in vitro compound consumption by the microsomal fractions at 0, 5, 15, and 30 min reaction (incubation) time. The intrinsic compound clearance was taken as the half-life, and the disappearance was compared with the positive control, verapamil(2 μM).

[4] = Chemical stability at pH 1.2, 7.4 and 9.1; assay type: physicochemical; settings: 37 °C for 24 h
Experimental: The compounds to be tested were prepared in a 100 μM solution and incubated at 37 °C for 24 h in three solutions representing the physiologically relevant pHs to drug administration: pH 1.2 (stomach), pH 7.4 (plasma), and pH 9.2 (intestinal tissue). The compounds were quantified by HPLC-MS/MS. The chemical stability experiments were carried out in triplicates to ensure reproducibility. The results were presented as percentage, comparing the signal at time zero of the assay, considering this measure 100%, with measurements after the incubation time. Alprenolol was used as the analytical control (data not shown). The results were presented as the percentage, comparing the signal at time zero of the assay (100%) with the signal produced by concentrations after the incubation period.

Mtb H37Rv strain = experiment: In vivo model of TB infection in mice; settings: for lungs mean log10 CFU/mL ± SD / spleen weight mean g ± SD: gavage, single daily dose, 15 administrations; for toxicity in mice (in words): infected mice, up to 21 days
[5] = In vivo absorption assay: plasma concentration after gavage; settings: mice, gavage 400 mg/kg
[6] = Chemical stability in H2O at 37 °C, open and closed system (volatility assay)
[7] = tested on: tryptophan transport system of Mtb H37Rv strain; settings: tryptophan transport system of Mtb H37Rv strain ref 27; read-out: Michaelis–Menten constant (KM); cited from earlier work
[8] = Mycobacterium tuberculosis, H37RV, most frequent value of three independent assays
[9] = most frequent value of three independent assays

## N[C@@H](Cc1c[nH]c2ccc(F)cc12)C(=O)O [5-fluorotryptophan, reference compound]
[1]; Mycobacterium tuberculosis, H37RV
  MIC: > 20 µg/mL
[1]; [8]
  MIC: > 90 µM

## Clc1ccc2[nH]ccc2c1 [Compound 2, 5-chloroindole]
[1]; [9]
  MIC: >263.9 µM
[1]; [8]
  MIC: > 264 µM

## Brc1ccc2[nH]ccc2c1 [Compound 3, 5-bromoindole]
[1]; [9]
  MIC: >204.0 µM
[1]; [8]
  MIC: > 204 µM

## N#Cc1ccc2[nH]ccc2c1 [Compound 4]
[1]; [8]
  MIC: > 281 µM

## O=[N+]([O-])c1ccc2[nH]ccc2c1 [Compound 5]
[1]; [8]
  MIC: > 247 µM

## Oc1ccc2[nH]ccc2c1 [Compound 6]
[1]; [8]
  MIC: > 300 µM

## COc1ccc2[nH]ccc2c1 [Compound 7]
[1]; [8]
  MIC: > 272 µM

## Fc1cccc2[nH]ccc12 [Compound 8]
[1]
  reduction of activity compared to 5-FI (MIC ratio): approximately 4 fold
[1]; [8]
  MIC: 18.5 µM

## Fc1ccc2cc[nH]c2c1 [Compound 9]
[1]
  reduction of activity compared to 5-FI (MIC ratio): more than 15 fold
[1]; [8]
  MIC: 74 µM

## Fc1cccc2cc[nH]c12 [Compound 10]
[1]
  reduction of activity compared to 5-FI (MIC ratio): > 31 fold
[1]; [8]
  MIC: 148 µM

## Cl.Fc1ccc2[nH]ccc2c1 [Compound 11, 5-fluoroindole hydrochloride]
[1]; [9]
  MIC: 29.1 µM
[2]; pH 1.2, simulated gastric fluid, 0.1 M HCl, read-out: aqueous solubility pH 1.2
  solubility at 4 h: 2.3 µM
[2]; pH 9.1, aqueous buffer, 0.1 M NH4HCO3, read-out: aqueous solubility pH 9.1
  solubility at 4 h: 1110 µM
[2]; phosphate-buffered saline, pH 7.4, aqueous buffer, PBS, read-out: aqueous solubility pH 7.4
  solubility at 4 h: 600 µM
[3]; pH 7.4, read-out: metabolic stability Clint (intrinsic clearance)
  CLint scaled: 48 mL/min/kg
[3]; pH 7.4, read-out: metabolic stability t1/2 (half-life)
  half-life: 12 min
[4]; 0.1 M HCl
  chemical stability pH 1.2: 100%
[4]; 0.1 M NH4HCO3
  chemical stability pH 9.1: 90.5%
[4]; PBS
  chemical stability pH 7.4: 80.3%
[4]; pH 1.2, 7.4, 9.1
  chemical stability at all pH values tested: > 80%
Mtb H37Rv strain; 10 μmol/kg
  lungs mean log10 CFU/mL ± SD: 5.80 ± 0.20 log10 CFU/mL
  spleen weight mean g ± SD: 0.58 ± 0.19 g
Mtb H37Rv strain; 30 μmol/kg
  lungs mean log10 CFU/mL ± SD: 6.21 ± 0.32 log10 CFU/mL
  spleen weight mean g ± SD: 0.55 ± 0.23 g
Mtb H37Rv strain; 100 μmol/kg
  lungs mean log10 CFU/mL ± SD: 5.86 ± 0.67 log10 CFU/mL
  spleen weight mean g ± SD: 0.62 ± 0.35 g
Mtb H37Rv strain; 200 μmol/kg
  number of CFUs in the lungs compared to the EC (early control) group (in words): significantly reduced
  reduction of mycobacterial load in the lungs compared to vehicle group (in words): significantly reduce
  lungs mean log10 CFU/mL ± SD: 3.68 ± 0.45***^, ### log10 CFU/mL
  spleen weight mean g ± SD: 0.28 ± 0.06 g
Mtb H37Rv strain; 10, 30 and 100 μmol/kg
  reduction of CFUs in the lungs compared to vehicle group (in words): not able to reduce
Mtb H37Rv strain; 200 μmol/kg, listed as 5-FI.HCL
  toxicity in mice (in words): no evidence of a toxic effect
Mtb H37Rv strain; 200 μmol/kg, listed as 5-FI.HCl
  toxicity in mice (in words): no toxicity
[5]; 15 min
  plasma concentration, mean ± SD: 32.6 ± 14.7 µM
[5]; 30 min
  plasma concentration, mean ± SD: 82.3 ± 35.05 µM
[5]; joint range over 5-FI and 5-FI.HCl, 15 and 30 min, 400 mg/kg
  plasma concentrations (range): 32.6 to 82.3 µM
[6]; 0 h
  chemical stability, closed system: 100 ± 0.0%
  chemical stability, open system: 100 ± 0.0%
[6]; 1 h
  chemical stability, closed system: 95.3 ± 0.1%
  chemical stability, open system: 97.6 ± 0.0%
[6]; 2 h
  chemical stability, closed system: 95.0 ± 0.2%
  chemical stability, open system: 98.0 ± 0.1%
[6]; 4 h
  chemical stability, closed system: 104.6 ± 0.2%
  chemical stability, open system: 100.3 ± 0.5%
[6]; 6 h
  chemical stability, closed system: 97.9 ± 0.1%
  chemical stability, open system: 103.9 ± 0.1%
[6]; 24 h
  chemical stability, closed system: 110.8 ± 0.2%
  chemical stability, open system: 113.5 ± 0.1%
[6]; 48 h
  chemical stability, closed system: 124.1 ± 0.1%
  chemical stability, open system: 114.3 ± 0.0%

## NNC(=O)c1ccncc1 [INH, isoniazid, reference compound]
[1]; [8]
  MIC: 2.3 µM
Mtb H37Rv strain; 150 μmol/kg
  lungs mean log10 CFU/mL ± SD: 2.43 ± 0.40***^, ### log10 CFU/mL
  spleen weight mean g ± SD: 0.23 ± 0.04 g

## CO[C@H]1/C=C/O[C@@]2(C)Oc3c(C)c(O)c4c(O)c(c(/C=N/N5CCN(C)CC5)c(O)c4c3C2=O)NC(=O)/C(C)=C\C=C\[C@H](C)[C@H](O)[C@@H](C)[C@@H](O)[C@@H](C)[C@H](OC(C)=O)[C@@H]1C [RIF, rifampin, reference compound]
[1]; [8]
  MIC: 0.09 µM

## N[C@@H](Cc1c[nH]c2ccccc12)C(=O)O [tryptophan, L-tryptophan]
[7]
  Km: 1250 µM
